Source: paper PMC9837035 (Nature Communications, 2023)
Where “and” joins values, the source holds several entries; their conditions need not be identical. Identical values can stand only once.

Key:
[1] = test system: rat myoblast cell line H9c2; assay: Cell viability assay (WST-8), H9c2; assay type: cell-based; details: control (0 μM) = 100
Procedure: (§1) A WST-8 (2-(2-methoxy-4-nitrophenyl)-3-(4-nitrophenyl)-5-(2,4-disulfophenyl)-2H-tetrazolium) assay using a Cell Counting Kit-8 (DOJINDO) was performed to measure cell viability using an EnSpire microplate reader (PerkinElmer).

HUDEP-2 cells = assay: Cell viability assay (WST-8), HUDEP-2; assay type: cell-based, human; details: control (0 μM) = 100
Procedure: as §1

mice = assay: Mouse acute toxicity assay, survival; assay type: in vivo; details: intravenous, 2-week observation
Procedure: All animal studies were approved by the Institutional Committee for Animal Experiments of the Institute of Microbial Chemistry, and were performed in accordance with relevant guidelines and regulations to minimize animal suffering. Four-week-old female ICR mice were purchased from Charles River Breeding Laboratories (Yokohama, Japan) and maintained in a specific pathogen-free barrier facility. […] Samples were dissolved in saline containing 10% DMSO and 1% Tween 80 and injected intravenously into mice.

[2] = test system: Salmonella typhimurium TA100; assay: Ames test, TA100
Procedure: (§2) The Salmonella mutagenicity assay was performed by pre-incubating the test compounds for 20 min with Salmonella typhimurium strains TA98 and TA100, with and without metabolic activation (S9 mixture).
(§3) After this time 2 mL of top agar was added to the mixture and poured on to a plate containing minimum agar. The plates were incubated at 37 °C for 49 h and the His ± revertant colonies were counted manually and automatically by a colony counter (Colony analyzer CA-11D systems, System science Co.,Ltd.). The influence of metabolic activation was tested by adding 500 μL of 10% S9 mixture. All experiments were performed in duplicate. […] DMSO served as the negative control (100 μL/plate). The mutagenic index (MI, the average number of revertants per plate divided by the average number of revertants per plate from the negative control) was also calculated for each dose. A sample was considered positive when the MI was equal to or greater than 2 for at least one of the tested doses.

[3] = test system: Salmonella typhimurium TA98; assay: Ames test, TA98
Procedure: as §2, §3

[4] = test system: BGLT3 RNA in HUDEP-2 cells; assay: RT-qPCR of BGLT3 in HUDEP-2 cells; assay type: cell-based, human; details: relative to DMSO = 1, replicate values; for BGLT3 expression in HUDEP-2 cells: Sup.Fig.11a
Procedure: (§4) Total cellular RNA was prepared using the Tissue Total RNA Mini Kit (FAVORGEN), and cDNA was synthesized using ReverTra Ace Master Mix (TOYOBO). Expression of target genes was analyzed using THUNDERBIRD SYBR qPCR Mix (TOYOBO) on a CFX Connect Real Time System (Bio-Rad). The qPCR data were acquired on CFX Maestro (Bio-Rad). Primers are listed in Supplementary Table 10. GAPDH was used as a reference. Primers were purchased from INTEGRATED DNA TECHNOLOGIES or FASMAC.

[5] = test system: BGLT3-knockdown HUDEP-2 cells; assay: RT-qPCR of BGLT3, β- and γ-globin in BGLT3-knockdown HUDEP-2 cells; assay type: cell-based, human; details: 1 μM, relative to shctrl DMSO = 1, replicate values
Procedure: as §4
Retroviral infection was used as previously described to establish cell lines stably expressing BGLT3 and transfected with the pCX4-pur vector, as well as knockdown cell lines transfected with the pSUPER vector[58]. Briefly, retroviruses were produced by transfecting PLAT-E cells with pCX4-pur-BGLT3 or pSUPER-ctrl, pSUPER-BGLT3, or pSUPER-G9a using 5 μg/mL polyethylenimine MAX (PEI MAX, Polysciences). Two days after transfection, the culture supernatant was collected and filtered through a 0.45-μm filter (Millipore) and used for infection with 8 μg/mL polybrene (Sigma). Forty-eight hours after infection, the infected cells were selected with 0.2 μg/mL puromycin (InvivoGen). The clonal puromycin-resistant cells were established via limiting dilution. The desired clones were confirmed by western blotting or qPCR.

G9a = target: T1, G9a (Homo sapiens, UniProt Q96KQ7); assay: In vitro G9a methyltransferase assay (AlphaLISA-based); assay type: biochemical; design: purchased BPS Bioscience
T1 sequence (Q96KQ7 1-1210): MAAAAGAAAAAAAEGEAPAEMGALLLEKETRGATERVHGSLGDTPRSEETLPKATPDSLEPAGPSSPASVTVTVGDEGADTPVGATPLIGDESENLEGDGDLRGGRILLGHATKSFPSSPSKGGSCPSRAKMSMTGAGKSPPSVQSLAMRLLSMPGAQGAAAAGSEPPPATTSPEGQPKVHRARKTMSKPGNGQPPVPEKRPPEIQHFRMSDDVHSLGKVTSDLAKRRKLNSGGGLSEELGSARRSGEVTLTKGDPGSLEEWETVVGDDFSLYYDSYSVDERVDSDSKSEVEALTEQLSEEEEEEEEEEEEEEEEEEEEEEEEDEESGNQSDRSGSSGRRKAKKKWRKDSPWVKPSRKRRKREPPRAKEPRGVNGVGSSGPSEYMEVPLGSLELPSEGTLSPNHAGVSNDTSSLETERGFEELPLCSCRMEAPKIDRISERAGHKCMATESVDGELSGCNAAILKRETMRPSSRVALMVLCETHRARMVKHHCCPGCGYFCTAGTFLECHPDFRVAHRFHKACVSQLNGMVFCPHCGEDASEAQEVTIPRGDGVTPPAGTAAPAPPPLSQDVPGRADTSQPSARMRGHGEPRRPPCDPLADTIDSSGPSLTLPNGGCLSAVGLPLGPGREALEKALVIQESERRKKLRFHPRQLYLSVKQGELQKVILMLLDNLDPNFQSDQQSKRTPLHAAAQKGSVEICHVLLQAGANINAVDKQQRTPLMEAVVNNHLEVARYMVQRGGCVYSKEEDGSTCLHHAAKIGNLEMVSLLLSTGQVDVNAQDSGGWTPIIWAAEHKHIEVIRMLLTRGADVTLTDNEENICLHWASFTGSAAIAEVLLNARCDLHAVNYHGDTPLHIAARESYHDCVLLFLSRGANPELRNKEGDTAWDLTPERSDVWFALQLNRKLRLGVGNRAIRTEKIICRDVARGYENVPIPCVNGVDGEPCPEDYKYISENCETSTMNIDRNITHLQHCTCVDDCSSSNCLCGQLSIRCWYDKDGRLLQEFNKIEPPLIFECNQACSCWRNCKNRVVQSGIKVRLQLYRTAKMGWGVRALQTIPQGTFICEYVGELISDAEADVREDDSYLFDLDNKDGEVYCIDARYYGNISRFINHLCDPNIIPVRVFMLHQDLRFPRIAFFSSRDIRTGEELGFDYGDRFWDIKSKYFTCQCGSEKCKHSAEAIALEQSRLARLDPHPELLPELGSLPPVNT
Procedure: An amplified luminescence proximity homogeneous assay (ALPHA) was performed with a modified version of a previously described method. Recombinant G9a proteins (BPS Bioscience) were incubated with 15 μM S-adenosyl-methionine (Sigma) and 50 nM biotinylated histone H3 (1-21; AnaSpec) in the assay buffer (50 mM Tris-HCl (pH 9.0), 50 mM NaCl, 0.01% Tween-20, and 1 mM DTT). After incubation at room temperature for 1 h, AlphaLISA anti-H3K9me2 acceptor beads (final concentration 10 μg/mL, PerkinElmer, AL117C) and AlphaScreen streptavidin donor beads (final concentration 10 μg/mL, PerkinElmer, 6760002B) were added and incubated for an additional 1 h prior to detection of the alpha signal with an EnSpire Alpha plate reader (PerkinElmer). ALPHA profile was analyzed using Origin (OriginLab).

[6] = test system: β- and γ-globin genes in HUDEP-2 cells; assay: RT-qPCR of β- and γ-globin in HUDEP-2 cells; assay type: cell-based, human; details: single agents or combination; relative to DMSO = 1; replicate values
Procedure: as §4

[7] = G9a activity, AlphaLISA-based assay, mean of three experiments
[8] = Sup.Table1, three replicate values

COc1cc2c(cc1OCCCN1CCCC1)N=C(N)C21CCC1 [A-366]
cell viability in H9c2 cells ([1]; 0.039 μM): 104.360 and 99.467 and 89.907
cell viability in H9c2 cells ([1]; 0.156 μM): 95.640 and 83.067 and 81.211
cell viability in H9c2 cells ([1]; 0.625 μM): 92.264 and 78.533 and 78.882
cell viability in H9c2 cells ([1]; 2.5 μM): 78.059 and 64.000 and 71.429
cell viability in H9c2 cells ([1]; 10.0 μM): 53.868 and 49.733 and 52.329
cell viability in HUDEP-2 cells (HUDEP-2 cells; 0.00457247 μM): 82.0673 and 97.2549 and 93.6968
cell viability in HUDEP-2 cells (HUDEP-2 cells; 0.0137174 μM): 88.332 and 96 and 98.8075
cell viability in HUDEP-2 cells (HUDEP-2 cells; 0.0411523 μM): 83.007 and 93.4902 and 87.9046
cell viability in HUDEP-2 cells (HUDEP-2 cells; 0.123457 μM): 84.5732 and 96 and 89.6082
cell viability in HUDEP-2 cells (HUDEP-2 cells; 0.37037 μM): 79.2482 and 92.549 and 93.6968
cell viability in HUDEP-2 cells (HUDEP-2 cells; 1.11111 μM): 81.1276 and 90.6667 and 88.586
cell viability in HUDEP-2 cells (HUDEP-2 cells; 3.33333 μM): 67.9718 and 80.3137 and 66.7802
cell viability in HUDEP-2 cells (HUDEP-2 cells; 10 μM): 52.3101 and 64.9412 and 58.9438
Number of alive mice (mice; 0.1953125 mg/kg): 3/3
Number of alive mice (mice; 0.390625 mg/kg): 3/3
Number of alive mice (mice; 0.78125 mg/kg): 3/3
Number of alive mice (mice; 1.5625 mg/kg): 0/3
Number of alive mice (mice; 3.125 mg/kg): 0/3

NC(=O)C(=Cc1ccc([N+](=O)[O-])o1)c1ccco1 [AF-2, 2-(2-furyl)-3-(5-nitro-2-furyl)acrylamide, reference compound]
Number of reverants/plate ([2]; TA100, - S9, base pair substitution mutation, 0.01 μg/plate): 725 and 728
Number of revertants/plate ([2]; TA100, -S9, 0.01 μg/plate, positive control): 727
Number of reverants/plate ([3]; TA98, - S9, frameshift mutation, 0.1 μg/plate): 497 and 507
Number of revertants/plate ([3]; TA98, -S9, 0.1 μg/plate, positive control): 502

Nc1ccccc1NC(=O)c1ccc(CNC(=O)OCc2cccnc2)cc1 [MS-275]
BGLT3 expression in HUDEP-2 cells [4]: 14.3147 and 21.8274 and 19.7082
β-globin gene in BGLT3-knockdown HUDEP-2 cells ([5]; shBGLT3 #1): 3.1513 and 3.12 and 3.5502
γ-globin gene in BGLT3-knockdown HUDEP-2 cells ([5]; shBGLT3 #1): 20.155 and 19.0925 and 20.8632
β-globin gene in BGLT3-knockdown HUDEP-2 cells ([5]; shBGLT3 #2): 2.766 and 2.148 and 2.288
γ-globin gene in BGLT3-knockdown HUDEP-2 cells ([5]; shBGLT3 #2): 8.523 and 7.607 and 25.7598
β-globin gene in BGLT3-knockdown HUDEP-2 cells ([5]; shBGLT3 #3): 1.145 and 1.259 and 1.535
γ-globin gene in BGLT3-knockdown HUDEP-2 cells ([5]; shBGLT3 #3): 19.0595 and 19.9736 and 20.0664
β-globin gene in BGLT3-knockdown HUDEP-2 cells ([5]; shctrl): 4.7699 and 6.2041 and 4.688
γ-globin gene in BGLT3-knockdown HUDEP-2 cells ([5]; shctrl): 47.2575 and 62.7038 and 44.6998

COC(=O)c1ccc2nc([C@H](CCSC)NC(=O)c3[nH]c4c(c3C)C(=O)CC(C)(C)C4)[nH]c2c1 [compound 8]
IC50 (G9a; [7]): 21.3 µM
IC50 (G9a; [8]): 24.6 µM and 20.7 µM and 18.7 µM

CSCC[C@H](NC(=O)c1[nH]c2c(c1C)C(=O)CC(C)(C)C2)C(=O)Nc1ccccc1 [compound 9]
IC50 (G9a; [7]): 0.3 µM
IC50 (G9a; [8]): 0.299 µM and 0.291 µM and 0.316 µM

Nc1ncn([C@H]2C[C@H](O)[C@@H](CO)O2)c(=O)n1 [decitabine]
β-globin expression in HUDEP-2 cells treated with RK-701 and decitabine [6]: 0.9105 and 1.679 and 1.802
γ-globin expression in HUDEP-2 cells treated with RK-701 and decitabine [6]: 5.299 and 8.189 and 8.892
BGLT3 expression in HUDEP-2 cells [4]: 2.269 and 2.6404 and 2.1358
BGLT3 expression in HUDEP-2 cells treated with RK-701 and decitabine ([4]; single agents or combination): 3.3143 and 2.772 and 4.351
β-globin gene in BGLT3-knockdown HUDEP-2 cells ([5]; shBGLT3 #1): 0.735 and 0.7829 and 0.8722
γ-globin gene in BGLT3-knockdown HUDEP-2 cells ([5]; shBGLT3 #1): 2.413 and 2.581 and 2.465
β-globin gene in BGLT3-knockdown HUDEP-2 cells ([5]; shBGLT3 #2): 0.6218 and 0.5853 and 0.4869
γ-globin gene in BGLT3-knockdown HUDEP-2 cells ([5]; shBGLT3 #2): 2.574 and 2.659 and 3.171
β-globin gene in BGLT3-knockdown HUDEP-2 cells ([5]; shBGLT3 #3): 0.8092 and 0.8421 and 1.086
γ-globin gene in BGLT3-knockdown HUDEP-2 cells ([5]; shBGLT3 #3): 1.425 and 1.467 and 1.465
β-globin gene in BGLT3-knockdown HUDEP-2 cells ([5]; shctrl): 0.8786 and 0.8917 and 0.7285
γ-globin gene in BGLT3-knockdown HUDEP-2 cells ([5]; shctrl): 8.583 and 10.749 and 7.48
